Source: PubChem BioAssay (NCI)
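Step 1: Grow cells in 96-well plates. Step 2: Expose to compound for 48 hours at 5 concentrations. Step 3: Interpolate endpoints linearly; if unreached, use highest concentration. GI50: concentration for 50% inhibition of growth. TGI denotes the concentration required for complete inhibition of growth.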 Residues, ends and D or L forms follow the SMILES beside them. *: point of attachment. Boc = CC(C)(C)OC(=O)*; OBn = c1ccc(CO*)cc1

What was measured:
Assay in all cases: NCI tumour cell line growth inhibition, 48 h
A498 renal = system: A498 renal
SN12C renal = system: SN12C renal
UACC-257 melanoma = system: UACC-257 melanoma
SF-295 CNS = system: SF-295 CNS
CCRF-CEM leukemia = system: CCRF-CEM leukemia
OVCAR-4 ovarian = system: OVCAR-4 ovarian
SK-MEL-5 melanoma = system: SK-MEL-5 melanoma
RXF 393 renal = system: RXF 393 renal
NCI-H522 lung = system: NCI-H522 lung
HCT-15 colon = system: HCT-15 colon
NCI-H226 lung = system: NCI-H226 lung
HOP-92 NSCLC = system: HOP-92 NSCLC
KM12 colon = system: KM12 colon
UO-31 renal = system: UO-31 renal
PC-3 prostate = system: PC-3 prostate
MDA-MB-231 breast = system: MDA-MB-231 breast
IGROV1 ovarian = system: IGROV1 ovarian
NCI-H460 lung = system: NCI-H460 lung
UACC-62 melanoma = system: UACC-62 melanoma
786-0 renal = system: 786-0 renal
HT29 colon = system: HT29 colon
SNB-75 CNS = system: SNB-75 CNS
SK-MEL-28 melanoma = system: SK-MEL-28 melanoma
EKVX NSCLC = system: EKVX NSCLC
DU-145 prostate = system: DU-145 prostate
SW-620 colon = system: SW-620 colon
SNB-19 CNS = system: SNB-19 CNS
LOX IMVI melanoma = system: LOX IMVI melanoma
RPMI-8226 leukemia = system: RPMI-8226 leukemia
OVCAR-3 ovarian = system: OVCAR-3 ovarian
SF-268 CNS = system: SF-268 CNS
TK-10 renal = system: TK-10 renal
MDA-MB-435 = system: MDA-MB-435
SK-MEL-2 melanoma = system: SK-MEL-2 melanoma
NCI-H23 lung = system: NCI-H23 lung
BT-549 breast = system: BT-549 breast
MALME-3M melanoma = system: MALME-3M melanoma
HL-60(TB) leukemia = system: HL-60(TB) leukemia
ACHN renal = system: ACHN renal
SF-539 CNS = system: SF-539 CNS
CAKI-1 renal = system: CAKI-1 renal
OVCAR-5 ovarian = system: OVCAR-5 ovarian
HCC-2998 colon = system: HCC-2998 colon
OVCAR-8 ovarian = system: OVCAR-8 ovarian
NCI/ADR-RES ovarian = system: NCI/ADR-RES ovarian
SR leukemia = system: SR leukemia
MOLT-4 leukemia = system: MOLT-4 leukemia
SK-OV-3 ovarian = system: SK-OV-3 ovarian
U251 CNS = system: U251 CNS
COLO 205 colon = system: COLO 205 colon
T-47D breast = system: T-47D breast
HCT-116 colon = system: HCT-116 colon
M14 melanoma = system: M14 melanoma
MCF7 breast = system: MCF7 breast
HOP-62 NSCLC = system: HOP-62 NSCLC
HS 578T breast = system: HS 578T breast
A549 NSCLC = system: A549 NSCLC
K-562 leukemia = system: K-562 leukemia

## COc1cccc2c(=O)c3c(sc12)c(NCCCN)nc1ccccc13
A498 renal
  GI50: 1.68 µM
  TGI: 3.15 µM
SN12C renal
  GI50: 1.45 µM
  TGI: 2.85 µM
UACC-257 melanoma
  GI50: 2 µM
  TGI: 4.17 µM
SF-295 CNS
  GI50: 1.77 µM
  TGI: 3.25 µM
CCRF-CEM leukemia
  GI50: 1.91 µM
  TGI: 4.86 µM
OVCAR-4 ovarian
  GI50: 1.73 µM
  TGI: 3.64 µM
SK-MEL-5 melanoma
  GI50: 1.69 µM
  TGI: 3.07 µM
RXF 393 renal
  GI50: 1.53 µM
  TGI: 2.96 µM
NCI-H522 lung
  GI50: 1.81 µM
  TGI: 3.65 µM
HCT-15 colon
  GI50: 1.32 µM
  TGI: 2.7 µM
NCI-H226 lung
  GI50: 1.52 µM
  TGI: 3.15 µM
HOP-92 NSCLC
  GI50: 1.27 µM
  TGI: 2.75 µM
KM12 colon
  GI50: 1.62 µM
  TGI: 3.21 µM
UO-31 renal
  GI50: 0.832 µM
  TGI: 2.18 µM
PC-3 prostate
  GI50: 1.58 µM
  TGI: 3.14 µM
MDA-MB-231 breast
  GI50: 1.29 µM
  TGI: 2.67 µM
IGROV1 ovarian
  GI50: 0.858 µM
  TGI: 2.16 µM
NCI-H460 lung
  GI50: 0.745 µM
  TGI: 2.23 µM
UACC-62 melanoma
  GI50: 1.64 µM
  TGI: 3.05 µM
786-0 renal
  GI50: 1.65 µM
  TGI: 3.14 µM
HT29 colon
  GI50: 1.41 µM
  TGI: 2.99 µM
SNB-75 CNS
  GI50: 1.64 µM
  TGI: 3.2 µM
SK-MEL-28 melanoma
  GI50: 1.87 µM
  TGI: 3.36 µM
EKVX NSCLC
  GI50: 1.43 µM
  TGI: 2.81 µM
DU-145 prostate
  GI50: 1.48 µM
  TGI: 2.82 µM
SW-620 colon
  GI50: 1.3 µM
  TGI: 2.81 µM
SNB-19 CNS
  GI50: 1.61 µM
  TGI: 3.04 µM
LOX IMVI melanoma
  GI50: 1.3 µM
  TGI: 2.68 µM
RPMI-8226 leukemia
  GI50: 2.11 µM
  TGI: 4.92 µM
OVCAR-3 ovarian
  GI50: 1.41 µM
  TGI: 2.91 µM
SF-268 CNS
  GI50: 1.48 µM
  TGI: 3.32 µM
TK-10 renal
  GI50: 1.99 µM
  TGI: 3.63 µM
MDA-MB-435
  GI50: 1.8 µM
  TGI: 3.34 µM
SK-MEL-2 melanoma
  GI50: 2 µM
  TGI: 4.15 µM
NCI-H23 lung
  GI50: 1.56 µM
  TGI: 2.99 µM
BT-549 breast
  GI50: 10.8 µM
  TGI: 26.5 µM
MALME-3M melanoma
  GI50: 1.58 µM
  TGI: 2.99 µM
HL-60(TB) leukemia
  GI50: 1.98 µM
  TGI: 3.94 µM
ACHN renal
  GI50: 1.32 µM
  TGI: 2.59 µM
SF-539 CNS
  GI50: 1.6 µM
  TGI: 2.97 µM
CAKI-1 renal
  GI50: 1.48 µM
  TGI: 2.82 µM
OVCAR-5 ovarian
  GI50: 1.65 µM
  TGI: 3.01 µM
HCC-2998 colon
  GI50: 1.72 µM
  TGI: 3.26 µM

## Cc1ccc(N2C(=O)C(Cl)=C(Nc3cccc(O)c3)C2=O)cc1Cl
A498 renal
  GI50: 12.4 µM
  TGI: 25.5 µM
SN12C renal
  GI50: 19.7 µM
  TGI: 44.1 µM
OVCAR-8 ovarian
  GI50: 16.8 µM
  TGI: 43.5 µM
SF-295 CNS
  GI50: 17.8 µM
  TGI: 36.5 µM
NCI/ADR-RES ovarian
  GI50: 21.6 µM
  TGI: 54.7 µM
CCRF-CEM leukemia
  GI50: 18.5 µM
  TGI: 46.8 µM
OVCAR-4 ovarian
  GI50: 26.9 µM
  TGI: 76.3 µM
SR leukemia
  GI50: 8.06 µM
  TGI: 30.4 µM
SK-MEL-5 melanoma
  GI50: 15 µM
  TGI: 28.9 µM
RXF 393 renal
  GI50: 0.549 µM
  TGI: 22.2 µM
NCI-H522 lung
  GI50: 31.8 µM
  TGI: > 100 µM
MOLT-4 leukemia
  GI50: 3.13 µM
  TGI: 21.2 µM
SK-OV-3 ovarian
  GI50: 21 µM
  TGI: 44.2 µM
HCT-15 colon
  GI50: 18.6 µM
  TGI: 40.1 µM
U251 CNS
  GI50: 15.7 µM
  TGI: 31 µM
HOP-92 NSCLC
  GI50: 15.7 µM
  TGI: 37.6 µM
KM12 colon
  GI50: 17 µM
  TGI: 31.6 µM
UO-31 renal
  GI50: 26.1 µM
  TGI: 75.8 µM
PC-3 prostate
  GI50: 12.5 µM
  TGI: 30.9 µM
COLO 205 colon
  GI50: 26.4 µM
  TGI: 73 µM
IGROV1 ovarian
  GI50: 31.5 µM
  TGI: > 100 µM
NCI-H460 lung
  GI50: 11.6 µM
  TGI: 26.7 µM
UACC-62 melanoma
  GI50: 17 µM
  TGI: 32.6 µM
786-0 renal
  GI50: 19.3 µM
  TGI: 52 µM
T-47D breast
  GI50: 49.6 µM
  TGI: > 100 µM
SK-MEL-28 melanoma
  GI50: 22.4 µM
  TGI: 49.8 µM
DU-145 prostate
  GI50: 16.9 µM
  TGI: 31.5 µM
HCT-116 colon
  GI50: 13.9 µM
  TGI: 27.8 µM
SNB-19 CNS
  GI50: 23.3 µM
  TGI: 65.5 µM
LOX IMVI melanoma
  GI50: 16.4 µM
  TGI: 33.2 µM
RPMI-8226 leukemia
  GI50: 3.95 µM
  TGI: 28.6 µM
OVCAR-3 ovarian
  GI50: 15.3 µM
  TGI: 28.9 µM
SF-268 CNS
  GI50: 18.3 µM
  TGI: 37.2 µM
TK-10 renal
  GI50: 18.5 µM
  TGI: 33.4 µM
M14 melanoma
  GI50: 17.6 µM
  TGI: 32.3 µM
MDA-MB-435
  GI50: 16.6 µM
  TGI: 34 µM
MCF7 breast
  GI50: 6.16 µM
  TGI: 32 µM
HOP-62 NSCLC
  GI50: 17.7 µM
  TGI: 36.3 µM
SK-MEL-2 melanoma
  GI50: 38 µM
  TGI: > 100 µM
NCI-H23 lung
  GI50: 15.2 µM
  TGI: 30.5 µM
MALME-3M melanoma
  GI50: 17.2 µM
  TGI: 31.4 µM
HS 578T breast
  GI50: 17.4 µM
  TGI: 42.1 µM
ACHN renal
  GI50: 17.5 µM
  TGI: 32.7 µM
A549 NSCLC
  GI50: 12.8 µM
  TGI: 29.7 µM
K-562 leukemia
  GI50: 18.9 µM
  TGI: 52.8 µM
CAKI-1 renal
  GI50: 17 µM
  TGI: 34.6 µM
OVCAR-5 ovarian
  GI50: 16.5 µM
  TGI: 31.9 µM
HCC-2998 colon
  GI50: 14.5 µM
  TGI: 29.6 µM

## CCN1C/C(=C\c2ccc(Cl)cc2)C2=NN(c3ccccc3)C(c3ccc(Cl)cc3)C2C1 (stereo unspecified)
A498 renal
  TGI: > 100 µM
OVCAR-8 ovarian
  TGI: > 100 µM
UACC-257 melanoma
  TGI: > 100 µM
SF-295 CNS
  TGI: > 100 µM
NCI/ADR-RES ovarian
  TGI: > 100 µM
SK-MEL-5 melanoma
  TGI: > 100 µM
RXF 393 renal
  TGI: > 100 µM
NCI-H522 lung
  TGI: > 100 µM
SK-OV-3 ovarian
  TGI: > 100 µM
HCT-15 colon
  TGI: > 100 µM
NCI-H226 lung
  TGI: > 100 µM
UO-31 renal
  TGI: > 100 µM
PC-3 prostate
  TGI: > 100 µM
COLO 205 colon
  TGI: > 100 µM
NCI-H460 lung
  TGI: > 100 µM
UACC-62 melanoma
  TGI: > 100 µM
786-0 renal
  TGI: > 100 µM
SNB-75 CNS
  TGI: > 100 µM
EKVX NSCLC
  TGI: > 100 µM
DU-145 prostate
  TGI: > 100 µM
HCT-116 colon
  TGI: > 100 µM
SNB-19 CNS
  TGI: > 100 µM
LOX IMVI melanoma
  TGI: > 100 µM
TK-10 renal
  TGI: > 100 µM
M14 melanoma
  TGI: > 100 µM
MCF7 breast
  TGI: > 100 µM
HOP-62 NSCLC
  TGI: > 100 µM
NCI-H23 lung
  TGI: > 100 µM
BT-549 breast
  TGI: > 100 µM
ACHN renal
  TGI: > 100 µM
A549 NSCLC
  TGI: > 100 µM
OVCAR-5 ovarian
  TGI: > 100 µM

## CC(C)C(NC(=O)OC(C)(C)C)C(=O)N1CCCC1C(=O)OCc1ccccc1 (stereo not drawn) (Boc-Val-Pro-OBn; configuration not given here)
SR leukemia
  GI50: 90.6 µg/mL
SK-MEL-2 melanoma
  GI50: 46.3 µg/mL
